In US8273797B2, “Treating renal cancer using 4-[bis[2-[(methylsulfonyl)oxy]ethyl]amino]-2-methyl-benzaldehyde” (The United States of America, as represented by the …, priority 2005, dated 2012):
“And” between values parts separate entries of the source, which are not always exact repeats. Equal values may be shown once. “Also recorded” adds a separate entry of the source.

Experiments:
[1] = test system: xenograft; settings: mouse, in vivo; cited from earlier work
[2] = test system: RCC tumor cell lines; settings: cited from earlier work
[3] = test system: A498 human renal tumor xenografts; assay: Subcutaneous A498 xenograft tumor model; assay type: in vivo, athymic nude mice; settings: NSC-281612 54 mg/kg Q4Dx3 from day 4 post implantation, compared with NSC-281817 120 mg/kg
Procedure: Tumor cells (e.g., A498 and RXF-393) were derived from established tumors maintained by serial passage in mice for a maximum of 10 passages. […] Male mice were used in all experiments. All animals were provided by NCI contractors at the NCI-Frederick production facility or Taconic Laboratories (Germantown, N.Y.).
(§1) Intraperitoneal drug treatment schedules were established from the tumor doubling times because pharmacological data were not available. The dose levels were determined by establishing a single injection maximum tolerated dose (MTD) from which the experimental doses were calculated as: dose (mg/kg)=[(1.5×MTD)/no. of doses to be given]. Each experiment consisted of 20 control mice (based on statistical need) that received dosing vehicle (saline+0.05% Tween 80) on the same schedule as used for the test articles. Each treated group contained six mice. Tumor volumes were measured two to three times weekly and the tumor weights were calculated using the formula for a prolate ellipsoid: tumor weight (mg)={[length (in mm)]×[width (in mm)]^2}/2. The control tumors reached 500 mm^3 in 27 days for A498 and 12 days for RXF-393.
Human tumor xenografts were generated by injection of 1×10^7 A498 tumor cells subcutaneously into athymic nude male mice. […] The tumor weight was calculated every fourth day beginning at day 7. […]

[4] = test system: RXF-393 human renal tumor cells; assay: Orthotopic intrarenal RXF-393 tumor model; assay type: in vivo, mice; settings: for Median Tumor Weight (mg, Day 23) / T/C (%) / Median Tumor Weight (mg, Day 27): Rt. IV
[5] = Toxicity (mortality, body weight loss, tolerability) in mice bearing intrarenal RXF-393 tumors; assay type: in vivo
Procedure: as §1
RXF-393 cells were injected directly into the caudal pole of the kidney on Day 0. The inoculated kidney was monitored for tumor growth in treated versus control mice by collecting and weighing the kidneys on day 25 post-implantation. In a preliminary experiment, NSC-281612 was administered intraperitoneally (IP) every fourth day for a total of 5 treatments (Q4D×5) starting 4 days after tumor implantation. […] In this study, NSC-281612 was assessed at 25 mg/kg (Group 2), 16.8 mg/kg (Group 3) and 11.3 mg/kg (Group 4). Due to toxicity, the 25 mg/kg dose was lowered to 8.3 mg/kg and only 4 doses were administered to Groups 2 and 3 (see Table 1).
To assess the impact of drug administration route, an experiment was conducted in which NSC-281612 was administered at doses of 8 mg/kg, 4 mg/kg and 2 mg/kg given intravenously (IV) on a Q4D×5 schedule with the first treatment given on day 4 post-tumor implantation. […] See, Table 2 for results and FIG. 6 for individual renal tumor weights for mice administered control only (vehicle), 8 mg/kg, 4 mg/kg, or 2 mg/kg intravenously on a Q4D×5 schedule.

[6] = test system: Dunning rat leukemia; settings: Elderfield, private communication; no specific data disclosed; cited from earlier work
[7] = 2 mg/kg/dose IV Q4Dx5 from day 4
[8] = 4 mg/kg/dose IV Q4Dx5 from day 4
[9] = 8 mg/kg/dose IV Q4Dx5 from day 4
[10] = Group 2: 25 mg/kg Q4Dx3 and a final dose of 8.3 mg/kg IP

Cc1cc(N(CCOS(C)(=O)=O)CCOS(C)(=O)=O)ccc1C=Nc1ccc(-c2csc(-c3ccccc3)n2)c(Cl)c1 [compound 281613]
antitumor activity in xenograft-bearing mice [1]: only modest | in vitro activity against RCC tumor cell lines [2]: having in vitro activity

Cc1cc(N(CCOS(C)(=O)=O)CCOS(C)(=O)=O)ccc1C=Nc1ccc(-c2nc(Cc3ccccc3)sc2C)cc1 [NSC-281817]
antitumor activity in xenograft-bearing mice [1]: only modest | in vitro activity against RCC tumor cell lines [2]: having in vitro activity

CS(=O)(=O)OCCN(CCOS(C)(=O)=O)c1ccc(C=Nc2ccc(-c3csc(COc4ccccc4)n3)cc2)cc1 [compound 280074]
antitumor activity in xenograft-bearing mice [1]: only modest | in vitro activity against RCC tumor cell lines [2]: having in vitro activity

Cc1cc(N(CCOS(C)(=O)=O)CCOS(C)(=O)=O)ccc1C=O [NSC-281612, 4-[bis[2-[(methylsulfonyl)oxy]ethyl]amino]-2-methyl-benzaldehyde]
median tumor weight (effectiveness in limiting tumor weight) [3]: at least as effective in limiting tumor weight as NSC-281617 | reduction in tumor mass ([4]; 2 mg/kg/dose IV Q4Dx5): did not achieve a level of statistical significance | Day 22 Tumor Weight average [4, 7]: 270 mg | Day 22 Tumor Weight median [4, 7]: 284 mg | Median Tumor Weight (mg, Day 23) ([4]; 3.4 mg/kg/dose, QDx5, D5): 11.5 mg | T/C (%) ([4]; 3.4 mg/kg/dose, QDx5, D5, Day 23): 3% | Day 22 Tumor Weight average [4, 8]: 31 mg | Day 22 Tumor Weight median [4, 8]: 7 mg | tumor free animals ([4]; 5 mg/kg/dose IP Q4Dx5): no tumor free animals | tumor mass compared to the controls ([4]; 5 mg/kg/dose IP Q4Dx5): significant reduction in tumor mass | Median Tumor Weight (mg, Day 23) ([4]; 5 mg/kg/dose, QDx5, D5): 0 mg | T/C (%) ([4]; 5 mg/kg/dose, QDx5, D5, Day 23): 0% | Median Tumor Weight (mg, Day 23) ([4]; 7.5 mg/kg/dose, QDx5, D5): 0 mg | T/C (%) ([4]; 7.5 mg/kg/dose, QDx5, D5, Day 23): 0% | Day 22 Tumor Weight average [4, 9]: 1 mg | Day 22 Tumor Weight median [4, 9]: 0 mg | reduction in tumor weights ([4]; 8 mg/kg/dose and 4 mg/kg/dose IV Q4Dx5): statistically significant reductions in the tumor weights | Median Tumor Weight (mg, Day 27) ([4]; 25 mg/kg/dose, QDx1, D1O): 0 mg | T/C (%) ([4]; 25 mg/kg/dose, QDx1, D1O, Day 27): 0% | Median Tumor Weight (mg, Day 27) ([4]; 25 mg/kg/dose, QDx1, D5): 340 mg | T/C (%) ([4]; 25 mg/kg/dose, QDx1, D5, Day 27): 94% | Median Tumor Weight (mg, Day 27) ([4]; 25 mg/kg/dose, QDx1, D15): 1 mg | T/C (%) ([4]; 25 mg/kg/dose, QDx1, D15, Day 27): 0% | tumor burden at day 25 post-implantation ([4]; IP Q4Dx5 starting day 4, 25, 16.8 and 11.3 mg/kg (Groups 2-4)): markedly reduced the tumor burden; also recorded: active against intrarenal RXF-393 tumors at several doses | decrease in tumor weight ([4]; daily dose for five sequential days, doses as low as 3.4 mg/kg/dose): statistically significant decrease in tumor weight | efficacy of single dose ([4]; single 25 mg/kg dose on day 5 post-tumor implantation): ineffective | animals with no detectable tumor ([4]; single 25 mg/kg dose on day 10 or 15 post-tumor implantation): seven often | tolerability ([5]; 8, 4 and 2 mg/kg IV Q4Dx5 from day 4): well tolerated | average weight loss [5, 10]: 27% | mortality [5, 10]: no mortality | mortality ([5]; Group 3: 16.8 mg/kg Q4Dx5 IP, 16.8 mg/kg): no mortality and 16.8 mg NSC-281612/kg Q4Dx5 IP. There was no mortality | mortality ([5]; Group 4: 11.3 mg/kg Q4Dx5 IP, 11.3 mg/kg): no mortality and 11.3 mg NSC-281612/kg Q4Dx5 IP. There was no mortality | activity against Dunning rat leukemia [6]: possesses activity against Dunning rat leukemia
